Reference: US20220235073A1, “ARTEMISININ-DERIVATIVE N-HETEROCYCLIC CARBENE GOLD(I) HYBRID COMPLEXES” (CENTRE NATIONAL DE LA RECHERCHE SCIENTIFIQUE, priority 2019, published 2022)
Where two headings read alike, the source gives them in different places.

Tests used:
[1] = system: HL60 (acute myeloid leukemia); test: Cell viability MTT assay, HL60; assay type: cell-based; details: for GI50: 72 h, MTT assay; for IC50: Table 3, tumor cell model
Method: (§1) PC-3 human prostate cancer cells, and LAMA chronic myeloid leukemia were cultured in RPMI 1640 containing 10% fetal bovine serum and 1% antibiotics (100 U/mL penicillin and 100 μg/mL streotimycin) at 37° C. in 5% CO2 humidified incubators. HL60 chronic myeloid leukemia were cultured in RPMI 1640 containing 15% fetal bovine serum and 1% antibiotics (100 U/mL penicillin and 100 μg/mL streotimycin) at 37° C. in 5% CO2 humidified incubators. HepG-2 human liver cancer cells were cultured in EMEM containing 10% of FBS, 1% of nonessential amino acids, 1 mM of Na-pyruvate, 1% of PenStrep antibiotics and 600 μg/mL of Geneticin. A549 human lung carcinoma cells, T24 human bladder carcinoma cells, MCF-7 human breast adenocarcinoma cells, U-2OS human osteosarcoma and NIH3T3 murine fibroblast cells were cultured in DMEM medium containing 10% fetal bovine serum and 1% antibiotics at 37° C. in 5% CO2 humidified incubators. MC3T3 mouse osteoblast cells were cultured in MEM medium containing 10% fetal bovine serum and 1% antibiotics at 37° C. in 5% CO2 humidified incubators. RWPE-1 human prostate normal cells were cultured in K-SFM medium containing 0.05 mg/ml bovine pituitary extract (BPE) and 5 ng/ml epidermal growth factor (EGF) at 37° C. in 5% CO2 humidified incubators. The MTT reagent (3-(4,5-dimethylthiazol-2-yl)-2,5-diphenyltetrazolium bromide) was used to determine cell death as originally described by Mosmaneland modified by Cuvillier et al.^[6] Briefly, cells were seeded 5,000 to 10,000 cells/well in 24-well plates depending on the cell type and allowed to attach overnight. All of the complexes were dissolved in DMSO. The concentration of the complexes was calculated according to the elemental composition of the complexes determined by the elemental analyses. Media in the presence of the tested complexes were added and serially diluted to various concentrations (from 5 μM to 0.01 μM). Next to these concentrations, for DHA 50, 20 and 10 μM and for the cationic bisNHC gold(I) complex 3 0.001 μM have been used. […] After 72 h of treatment, cells were incubated at 37° C. and 5% CO2 with 25 μL MTT solution (5 mg/mL; Sigma-Aldrich) in 24-well plates for approximately 3 to 4 h. After solubilization with 500 μL of lysis buffer (DMSO), formazan was quantified by spectrophotometry with a microplate reader at 570 nm absorbance. The GI50 values corresponding to the concentration that caused 50% inhibition of cell proliferation were calculated from dose-response curves obtained by nonlinear regression analysis (Prism 8, Graphpad Software). All the results were calculated from data obtained in three independent experiments.

[2] = system: MCF-7 human breast adenocarcinoma cells; test: Cell viability MTT assay, MCF-7; assay type: cell-based; details: for GI50: 72 h, MTT assay; for IC50: Table 3, tumor cell model
Method: as §1

[3] = system: NIH3T3 murine fibroblast cells; test: Cell viability MTT assay, NIH3T3; assay type: cell-based; details: for GI50: 72 h, MTT assay; for Selectivity index NIH3T3: SI = GI50 (non-cancer cell line NIH3T3)/GI50 (cancer cell line PC-3); for IC50: Table 3, non tumoral cell model, read-out: IC50 NIH3T3 (fibroblasts)
Method: as §1, with “HepG-2” for “PC-3 human prostate cancer cells, and LAMA chronic myeloid leukemia were cultured in RPMI 1640 containing 10% fetal bovine serum and 1% antibiotics (100 U/mL penicillin and 100 μg/mL streotimycin) at 37° C. in 5% CO2 humidified incubators. HL60 chronic myeloid leukemia were cultured in RPMI 1640 containing 15% fetal bovine serum and 1% antibiotics (100 U/mL penicillin and 100 μg/mL streotimycin) at 37° C. in 5% CO2 humidified incubators. HepG-2”, “The GI50 values corresponding to the concentration that caused 50% inhibition of cell proliferation were calculated from dose-response curves obtained by nonlinear regression analysis (Prism 8, Graphpad Software).” left out

[4] = system: NF-κB transcription factor induced by TNFalpha; test: NF-kB transcriptional activity, NF-kB Reporter (Luc)-A549 stable cell line; assay type: cell-based, human; details: NF-kB Reporter A549 cells, 1 ng/ml TNFα, 7 hours, read-out: IC50, inhibition of NF-κB transcription factor induced by TNFalpha
Method: The NF-kB Reporter (Luc)—A549 Stable Cell Line was used to quantify the inhibitory effects of the indicated doses of the molecules of the invention on transcriptional activity of NF-kB activated by 1 ng/ml TNFα (7 hours of treatment).
Luminescence was read using a luminometer and readings were normalized to wells that only contain media to obtain the Relative Luminescence Units (RLUs).
9. NF-kB Transcriptional Activity

[5] = system: HepG-2 human liver cancer cells; test: Cell viability MTT assay, HepG-2; assay type: cell-based
Method: PC-3 human prostate cancer cells, and LAMA chronic myeloid leukemia were cultured in RPMI 1640 containing 10% fetal bovine serum and 1% antibiotics (100 U/mL penicillin and 100 μg/mL streotimycin) at 37° C. in 5% CO2 humidified incubators. HL60 […] were cultured in RPMI 1640 containing 15% fetal bovine serum and 1% antibiotics (100 U/mL penicillin and 100 μg/mL streotimycin) at 37° C. in 5% CO2 humidified incubators. HepG-2 human liver cancer cells were cultured in EMEM containing 10% of FBS, 1% of nonessential amino acids, 1 mM of Na-pyruvate, 1% of PenStrep antibiotics and 600 μg/mL of Geneticin. A549 human lung carcinoma cells, T24 human bladder carcinoma cells, MCF-7 human breast adenocarcinoma cells, U-2OS human osteosarcoma and NIH3T3 murine fibroblast cells were cultured in DMEM medium containing 10% fetal bovine serum and 1% antibiotics at 37° C. in 5% CO2 humidified incubators. MC3T3 mouse osteoblast cells were cultured in MEM medium containing 10% fetal bovine serum and 1% antibiotics at 37° C. in 5% CO2 humidified incubators. RWPE-1 human prostate normal cells were cultured in K-SFM medium containing 0.05 mg/ml bovine pituitary extract (BPE) and 5 ng/ml epidermal growth factor (EGF) at 37° C. in 5% CO2 humidified incubators. The MTT reagent (3-(4,5-dimethylthiazol-2-yl)-2,5-diphenyltetrazolium bromide) was used to determine cell death as originally described by Mosmaneland modified by Cuvillier et al.^[6] Briefly, cells were seeded 5,000 to 10,000 cells/well in 24-well plates depending on the cell type and allowed to attach overnight. All of the complexes were dissolved in DMSO. The concentration of the complexes was calculated according to the elemental composition of the complexes determined by the elemental analyses. […] After solubilization with 500 μL of lysis buffer (DMSO), formazan was quantified by spectrophotometry with a microplate reader at 570 nm absorbance. […] All the results were calculated from data obtained in three independent experiments.

[6] = system: RWPE-1 human prostate normal cells; test: Cell viability MTT assay, RWPE-1; assay type: cell-based; details: for GI50: 72 h, MTT assay; for Selectivity index RWPE-1: SI = GI50 (RWPE-1)/GI50 (PC-3); for IC50: Table 3, non tumoral cell model, read-out: IC50 RWPE1 (prostatic epithelial cells); for Specificity Prostate: RWPE1 (normal immortalized)/PC-3 (tumoral): ratio of IC50, tumoral versus non tumoral cells of same tissue
Method: as §1, with “HepG-2” for “PC-3 human prostate cancer cells, and LAMA chronic myeloid leukemia were cultured in RPMI 1640 containing 10% fetal bovine serum and 1% antibiotics (100 U/mL penicillin and 100 μg/mL streotimycin) at 37° C. in 5% CO2 humidified incubators. HL60 chronic myeloid leukemia were cultured in RPMI 1640 containing 15% fetal bovine serum and 1% antibiotics (100 U/mL penicillin and 100 μg/mL streotimycin) at 37° C. in 5% CO2 humidified incubators. HepG-2”, “The GI50 values corresponding to the concentration that caused 50% inhibition of cell proliferation were calculated from dose-response curves obtained by nonlinear regression analysis (Prism 8, Graphpad Software).” left out

[7] = system: LAMA chronic myeloid leukemia; test: Cell viability MTT assay, LAMA; assay type: cell-based, human; details: for GI50: 72 h, MTT assay; for IC50: Table 3, tumor cell model
Method: as §1

[8] = system: A549 human lung carcinoma cells; test: Cell viability MTT assay, A549; assay type: cell-based; details: for GI50: 72 h, MTT assay; for IC50: Table 3, tumor cell model
Method: as §1

[9] = system: T24 human bladder carcinoma cells; test: Cell viability MTT assay, T24; assay type: cell-based; details: for GI50: 72 h, MTT assay; for IC50: Table 3, tumor cell model
Method: as §1

[10] = system: U-2OS human osteosarcoma; test: Cell viability MTT assay, U-2OS; assay type: cell-based; details: for GI50: 72 h, MTT assay; for IC50: Table 3, tumor cell model, read-out: IC50 U2OS (bone tumor)
Method: as §1

**Q.** How did the GI50 [1] turn out when CC(=O)OC[C@H]1O[C@@H]([S-])[C@H](OC(C)=O)[C@@H](OC(C)=O)[C@@H]1OC(C)=O.CCP(CC)CC.[Au+] [Auranofin] was run?
**A.** 0.95 µM

**Q.** And the IC50 [1]?
**A.** 0.951 µM

**Q.** What about the GI50 [2] of the same molecule?
**A.** 1.39 µM

**Q.** And the IC50 [2]?
**A.** 1.39 µM

**Q.** What about the GI50 [3] of the same molecule?
**A.** 1.1 µM

**Q.** What about the “Selectivity index NIH3T3” value [3] of the same molecule?
**A.** 1.0

**Q.** And the IC50 [3]?
**A.** 1.1 µM

**Q.** And the IC50 [4]?
**A.** 2.96 µM

**Q.** What about the GI50 ([5]; 72 h) of the same molecule?
**A.** 3.62 µM

**Q.** And the GI50 [6]?
**A.** 0.084 µM

**Q.** And the “Selectivity index RWPE-1” value [6]?
**A.** 0.1

**Q.** What about the IC50 [6] of the same molecule?
**A.** 0.084 µM

**Q.** What about the “Specificity Prostate: RWPE1 (normal immortalized)/PC-3 (tumoral)” value [6] of the same molecule?
**A.** 0.1

**Q.** And the GI50 [7]?
**A.** 0.81 µM

**Q.** And the IC50 [7]?
**A.** 0.809 µM

**Q.** What about the GI50 [8] of the same molecule?
**A.** 4.41 µM

**Q.** What about the IC50 [8] of the same molecule?
**A.** 4.41 µM

**Q.** What about the GI50 [9] of the same molecule?
**A.** 1.1 µM

**Q.** What about the IC50 [9] of the same molecule?
**A.** 1.1 µM

**Q.** What about the GI50 ([10]; read-out: GI50 U2OS) of the same molecule?
**A.** 0.47 µM

**Q.** What about the IC50 [10] of the same molecule?
**A.** 0.474 µM

**Q.** With C[C@H]1[C@@H](O)O[C@@H]2O[C@]3(C)CC[C@H]4[C@H](C)CC[C@@H]1[C@@]24OO3 [DHA, dihydroartemisinin] as the molecule, how does the GI50 ([1]; Homo sapiens, HL-60) read?
**A.** 25 µM

**Q.** What about the IC50 ([1]; Homo sapiens, HL-60) of the same molecule?
**A.** 3.25 µM

**Q.** And the GI50 ([2]; Homo sapiens, MCF7)?
**A.** 9.67 µM

**Q.** And the IC50 ([2]; Homo sapiens, MCF7)?
**A.** 9.67 µM

**Q.** And the GI50 ([3]; Mus musculus, NIH3T3)?
**A.** 3.86 µM

**Q.** And the IC50 ([3]; Mus musculus, NIH3T3)?
**A.** 3.86 µM

**Q.** And the “Selectivity index NIH3T3” value [3]?
**A.** 2.5

**Q.** And the IC50 ([4]; Homo sapiens)?
**A.** 8.91 µM

**Q.** And the GI50 ([5]; Homo sapiens, HepG2, 72 h)?
**A.** 12 µM

**Q.** And the GI50 ([6]; Homo sapiens, RWPE-1)?
**A.** 9.68 µM

**Q.** What about the IC50 ([6]; Homo sapiens, RWPE-1) of the same molecule?
**A.** 9.68 µM

**Q.** What about the “Selectivity index RWPE-1” value [6] of the same molecule?
**A.** 6.2

**Q.** What about the “Specificity Prostate: RWPE1 (normal immortalized)/PC-3 (tumoral)” value [6] of the same molecule?
**A.** 6.2

**Q.** And the GI50 ([7]; Homo sapiens)?
**A.** 5.6 µM

**Q.** What about the IC50 ([7]; Homo sapiens) of the same molecule?
**A.** 5.6 µM

**Q.** And the GI50 ([8]; Homo sapiens, A549)?
**A.** 11 µM

**Q.** What about the IC50 ([8]; Homo sapiens, A549) of the same molecule?
**A.** 11 µM

**Q.** What about the GI50 ([9]; Homo sapiens) of the same molecule?
**A.** 4.99 µM

**Q.** And the IC50 ([9]; Homo sapiens)?
**A.** 4.99 µM

**Q.** And the GI50 ([10]; Homo sapiens, U2OS)?
**A.** 4.1 µM

**Q.** What about the IC50 ([10]; Homo sapiens, U2OS) of the same molecule?
**A.** 4.1 µM
